Measured values reported in ChEMBL document CHEMBL5649169 (ChemMedChem, 2018).

What was measured:
[1] = molecular target: Large ribosomal subunit protein eL20 (Homo sapiens) (UniProt Q02543)
[2] = molecular target: Tyrosine-protein kinase Fyn (Homo sapiens) (UniProt P06241)
[3] = molecular target: Alkyldihydroxyacetonephosphate synthase, peroxisomal (Homo sapiens) (UniProt O00116)
Homo sapiens [4] = species on record: Homo sapiens
[5] = molecular target: Protein transport protein Sec23B (Homo sapiens) (UniProt Q15437)
[6] = molecular target: T-complex protein 1 subunit delta (Homo sapiens) (UniProt P50991)
[7] = molecular target: Serine/threonine-protein kinase/endoribonuclease IRE1 (Homo sapiens) (UniProt O75460)
[8] = molecular target: Histone H4 (Homo sapiens) (UniProt P62805)
[9] = molecular target: Peroxiredoxin-4 (Homo sapiens) (UniProt Q13162)
Chain of Peroxiredoxin-4 (Homo sapiens) (Q13162 whole entry): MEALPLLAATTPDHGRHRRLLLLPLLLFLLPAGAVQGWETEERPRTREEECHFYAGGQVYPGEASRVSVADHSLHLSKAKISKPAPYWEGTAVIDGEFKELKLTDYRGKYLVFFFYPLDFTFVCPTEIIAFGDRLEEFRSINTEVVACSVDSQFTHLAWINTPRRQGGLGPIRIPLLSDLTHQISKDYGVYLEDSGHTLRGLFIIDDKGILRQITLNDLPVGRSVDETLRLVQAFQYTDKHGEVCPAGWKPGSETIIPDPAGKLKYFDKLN

[10] = molecular target: Putative heat shock protein HSP 90-beta 2 (Homo sapiens) (UniProt Q58FF8)
Chain of Putative heat shock protein HSP 90-beta 2 (Homo sapiens) (Q58FF8 whole entry): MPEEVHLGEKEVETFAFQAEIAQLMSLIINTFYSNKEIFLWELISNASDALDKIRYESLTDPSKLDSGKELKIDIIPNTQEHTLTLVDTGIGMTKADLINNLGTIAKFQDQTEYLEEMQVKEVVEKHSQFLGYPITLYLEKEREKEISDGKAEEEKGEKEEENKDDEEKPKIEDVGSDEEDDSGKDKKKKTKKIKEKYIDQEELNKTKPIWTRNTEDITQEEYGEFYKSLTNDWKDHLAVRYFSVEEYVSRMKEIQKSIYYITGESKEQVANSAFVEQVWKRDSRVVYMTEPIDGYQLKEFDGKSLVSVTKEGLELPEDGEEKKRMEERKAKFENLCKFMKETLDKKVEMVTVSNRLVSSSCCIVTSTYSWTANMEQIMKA

[11] = molecular target: Fibroblast growth factor receptor 1 (Homo sapiens) (UniProt P11362)
[12] = molecular target: Importin-5 (Homo sapiens) (UniProt O00410)
[13] = molecular target: Phosphatidylinositol 5-phosphate 4-kinase type-2 gamma (Homo sapiens) (UniProt Q8TBX8)
[14] = molecular target: Serine/threonine-protein kinase MRCK beta (Homo sapiens) (UniProt Q9Y5S2)
Chain of Serine/threonine-protein kinase MRCK beta (Homo sapiens) (Q9Y5S2 whole entry): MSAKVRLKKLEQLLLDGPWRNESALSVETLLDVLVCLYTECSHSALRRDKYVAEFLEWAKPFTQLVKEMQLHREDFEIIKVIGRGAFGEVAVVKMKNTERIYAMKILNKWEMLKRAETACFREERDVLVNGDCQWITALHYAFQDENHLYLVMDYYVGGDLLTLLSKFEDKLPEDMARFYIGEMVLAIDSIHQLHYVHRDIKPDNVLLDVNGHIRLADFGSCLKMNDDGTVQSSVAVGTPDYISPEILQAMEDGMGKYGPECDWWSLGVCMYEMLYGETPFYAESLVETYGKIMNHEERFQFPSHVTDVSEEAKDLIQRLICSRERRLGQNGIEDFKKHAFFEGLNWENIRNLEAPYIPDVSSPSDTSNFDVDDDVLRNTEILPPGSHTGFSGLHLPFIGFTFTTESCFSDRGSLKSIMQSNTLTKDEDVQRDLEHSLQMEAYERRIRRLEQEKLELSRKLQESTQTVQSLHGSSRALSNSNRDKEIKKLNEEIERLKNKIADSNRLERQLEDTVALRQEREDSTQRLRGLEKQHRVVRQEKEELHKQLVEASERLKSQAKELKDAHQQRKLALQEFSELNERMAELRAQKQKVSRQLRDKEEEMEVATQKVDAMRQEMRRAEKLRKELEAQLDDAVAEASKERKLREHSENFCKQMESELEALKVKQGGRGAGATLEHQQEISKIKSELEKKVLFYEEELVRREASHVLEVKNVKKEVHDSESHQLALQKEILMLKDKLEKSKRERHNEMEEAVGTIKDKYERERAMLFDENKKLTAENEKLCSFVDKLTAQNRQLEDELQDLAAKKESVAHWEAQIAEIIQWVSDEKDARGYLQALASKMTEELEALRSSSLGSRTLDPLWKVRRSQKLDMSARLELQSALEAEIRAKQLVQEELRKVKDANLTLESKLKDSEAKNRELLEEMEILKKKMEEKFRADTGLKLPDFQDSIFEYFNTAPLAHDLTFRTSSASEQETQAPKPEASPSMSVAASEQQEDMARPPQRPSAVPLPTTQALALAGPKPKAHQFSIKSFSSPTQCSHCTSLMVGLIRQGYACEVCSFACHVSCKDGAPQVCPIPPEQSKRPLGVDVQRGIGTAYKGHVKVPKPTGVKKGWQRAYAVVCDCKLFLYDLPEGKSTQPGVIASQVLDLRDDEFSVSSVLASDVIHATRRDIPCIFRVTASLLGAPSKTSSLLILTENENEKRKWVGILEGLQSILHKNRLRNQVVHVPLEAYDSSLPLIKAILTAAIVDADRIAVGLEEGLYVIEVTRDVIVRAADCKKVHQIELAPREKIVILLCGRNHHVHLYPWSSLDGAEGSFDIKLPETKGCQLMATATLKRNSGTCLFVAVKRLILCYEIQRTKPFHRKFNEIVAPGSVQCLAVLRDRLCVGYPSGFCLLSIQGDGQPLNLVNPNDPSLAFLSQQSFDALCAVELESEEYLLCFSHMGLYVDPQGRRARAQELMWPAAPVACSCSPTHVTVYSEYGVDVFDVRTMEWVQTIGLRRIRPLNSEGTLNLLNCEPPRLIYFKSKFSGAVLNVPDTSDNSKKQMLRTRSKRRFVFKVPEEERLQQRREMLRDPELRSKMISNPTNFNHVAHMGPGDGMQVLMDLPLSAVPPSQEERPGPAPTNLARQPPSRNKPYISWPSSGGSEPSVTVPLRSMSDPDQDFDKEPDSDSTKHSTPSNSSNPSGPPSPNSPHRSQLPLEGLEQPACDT

[15] = molecular target: Insulin-like growth factor 2 mRNA-binding protein 1 (Homo sapiens) (UniProt Q9NZI8)
Chain of Insulin-like growth factor 2 mRNA-binding protein 1 (Homo sapiens) (Q9NZI8 whole entry): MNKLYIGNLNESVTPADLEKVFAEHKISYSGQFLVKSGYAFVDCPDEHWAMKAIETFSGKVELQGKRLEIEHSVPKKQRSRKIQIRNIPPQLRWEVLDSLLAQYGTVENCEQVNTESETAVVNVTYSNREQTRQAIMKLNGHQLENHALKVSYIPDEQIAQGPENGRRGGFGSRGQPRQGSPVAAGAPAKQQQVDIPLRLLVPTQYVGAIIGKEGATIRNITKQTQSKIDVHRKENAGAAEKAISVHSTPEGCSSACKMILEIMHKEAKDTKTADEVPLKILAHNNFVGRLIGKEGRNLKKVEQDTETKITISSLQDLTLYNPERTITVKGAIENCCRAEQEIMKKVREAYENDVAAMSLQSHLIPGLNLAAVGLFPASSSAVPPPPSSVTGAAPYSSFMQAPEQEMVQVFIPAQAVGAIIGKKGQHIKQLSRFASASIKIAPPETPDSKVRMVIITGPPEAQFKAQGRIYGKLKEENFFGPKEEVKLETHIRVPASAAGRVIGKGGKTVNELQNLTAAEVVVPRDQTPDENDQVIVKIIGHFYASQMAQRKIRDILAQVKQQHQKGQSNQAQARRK

[16] = molecular target: Bifunctional purine biosynthesis protein ATIC (Homo sapiens) (UniProt P31939)
[17] = molecular target: Protein transport protein Sec24C (Homo sapiens) (UniProt P53992)
[18] = molecular target: Tetratricopeptide repeat protein 14 (Homo sapiens) (UniProt Q96N46)
[19] = molecular target: NADH-ubiquinone oxidoreductase 75 kDa subunit, mitochondrial (Homo sapiens) (UniProt P28331)
[20] = molecular target: Transportin-3 (Homo sapiens) (UniProt Q9Y5L0)
[21] = molecular target: Large ribosomal subunit protein eL36 (Homo sapiens) (UniProt Q9Y3U8)
Homo sapiens [22] = species on record: Homo sapiens; remark: listed apart in the source
[23] = molecular target: Alpha-internexin (Homo sapiens) (UniProt Q16352)
[24] = molecular target: Ribosome-binding protein 1 (Homo sapiens) (UniProt Q9P2E9)
[25] = molecular target: Rab GDP dissociation inhibitor beta (Homo sapiens) (UniProt P50395)
[26] = molecular target: Small ribosomal subunit protein eS24 (Homo sapiens) (UniProt P62847)
[27] = molecular target: Translocation protein SEC63 homolog (Homo sapiens) (UniProt Q9UGP8)
[28] = molecular target: Zona pellucida sperm-binding protein 1 (Homo sapiens) (UniProt P60852)
[29] = molecular target: Crk-like protein (Homo sapiens) (UniProt P46109)
[30] = molecular target: Mitogen-activated protein kinase kinase kinase 4 (Homo sapiens) (UniProt Q9Y6R4)
Chain of Mitogen-activated protein kinase kinase kinase 4 (Homo sapiens) (Q9Y6R4 whole entry): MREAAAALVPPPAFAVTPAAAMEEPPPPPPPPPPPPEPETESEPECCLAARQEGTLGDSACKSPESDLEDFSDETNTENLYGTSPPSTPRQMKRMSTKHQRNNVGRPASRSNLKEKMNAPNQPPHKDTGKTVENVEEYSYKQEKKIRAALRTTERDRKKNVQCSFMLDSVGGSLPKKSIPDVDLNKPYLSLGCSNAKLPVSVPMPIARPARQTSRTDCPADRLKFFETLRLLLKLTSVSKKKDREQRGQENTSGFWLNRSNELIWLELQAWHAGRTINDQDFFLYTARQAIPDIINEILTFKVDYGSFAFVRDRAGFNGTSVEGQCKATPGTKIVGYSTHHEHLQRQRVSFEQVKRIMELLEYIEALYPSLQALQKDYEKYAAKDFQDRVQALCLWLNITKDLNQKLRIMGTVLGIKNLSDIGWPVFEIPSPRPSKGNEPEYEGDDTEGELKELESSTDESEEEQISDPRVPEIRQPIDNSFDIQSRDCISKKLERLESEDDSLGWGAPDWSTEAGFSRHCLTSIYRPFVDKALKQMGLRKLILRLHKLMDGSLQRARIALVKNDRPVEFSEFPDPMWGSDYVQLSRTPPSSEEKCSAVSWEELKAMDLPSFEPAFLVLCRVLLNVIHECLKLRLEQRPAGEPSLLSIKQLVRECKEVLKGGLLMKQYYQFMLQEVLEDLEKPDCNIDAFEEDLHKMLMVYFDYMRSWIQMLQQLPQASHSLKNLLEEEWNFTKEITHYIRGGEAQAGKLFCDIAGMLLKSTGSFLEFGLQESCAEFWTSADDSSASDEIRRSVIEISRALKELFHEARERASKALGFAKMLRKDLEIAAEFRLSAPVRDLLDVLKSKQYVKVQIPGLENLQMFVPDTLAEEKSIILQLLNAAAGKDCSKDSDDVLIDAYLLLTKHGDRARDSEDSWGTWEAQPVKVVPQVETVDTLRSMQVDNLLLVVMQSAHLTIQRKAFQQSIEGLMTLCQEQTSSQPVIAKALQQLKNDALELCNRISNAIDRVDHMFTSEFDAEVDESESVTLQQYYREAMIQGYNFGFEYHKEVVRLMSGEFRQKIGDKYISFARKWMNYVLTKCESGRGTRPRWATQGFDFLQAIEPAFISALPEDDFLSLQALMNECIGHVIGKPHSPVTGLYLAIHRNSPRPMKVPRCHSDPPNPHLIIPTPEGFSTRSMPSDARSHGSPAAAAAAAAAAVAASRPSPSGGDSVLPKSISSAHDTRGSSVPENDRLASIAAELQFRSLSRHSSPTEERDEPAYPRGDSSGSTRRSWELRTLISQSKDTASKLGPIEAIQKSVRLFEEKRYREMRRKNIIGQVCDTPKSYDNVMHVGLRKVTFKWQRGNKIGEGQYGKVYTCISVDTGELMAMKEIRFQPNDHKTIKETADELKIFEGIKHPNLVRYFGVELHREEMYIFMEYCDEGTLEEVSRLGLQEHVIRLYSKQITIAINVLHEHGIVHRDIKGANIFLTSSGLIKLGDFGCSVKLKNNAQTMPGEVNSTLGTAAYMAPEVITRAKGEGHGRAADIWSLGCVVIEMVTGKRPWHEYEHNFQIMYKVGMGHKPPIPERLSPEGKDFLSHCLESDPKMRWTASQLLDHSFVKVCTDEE

[31] = molecular target: Serine/threonine-protein kinase D2 (Homo sapiens) (UniProt Q9BZL6)
[32] = molecular target: Ribosomal protein eS27-like (Homo sapiens) (UniProt Q71UM5)
[33] = molecular target: ATP-binding cassette sub-family D member 3 (Homo sapiens) (UniProt P28288)
[34] = molecular target: Eukaryotic translation initiation factor 3 subunit H (Homo sapiens) (UniProt O15372)
Derlin-1 (Homo sapiens) = Derlin-1 (Homo sapiens) (UniProt Q9BUN8)
[35] = molecular target: tRNA (guanosine(18)-2'-O)-methyltransferase TARBP1 (Homo sapiens) (UniProt Q13395)
[36] = molecular target: Ras association domain-containing protein 5 (Homo sapiens) (UniProt Q8WWW0)
Chain of Ras association domain-containing protein 5 (Homo sapiens) (Q8WWW0 whole entry, the tested form may be a part): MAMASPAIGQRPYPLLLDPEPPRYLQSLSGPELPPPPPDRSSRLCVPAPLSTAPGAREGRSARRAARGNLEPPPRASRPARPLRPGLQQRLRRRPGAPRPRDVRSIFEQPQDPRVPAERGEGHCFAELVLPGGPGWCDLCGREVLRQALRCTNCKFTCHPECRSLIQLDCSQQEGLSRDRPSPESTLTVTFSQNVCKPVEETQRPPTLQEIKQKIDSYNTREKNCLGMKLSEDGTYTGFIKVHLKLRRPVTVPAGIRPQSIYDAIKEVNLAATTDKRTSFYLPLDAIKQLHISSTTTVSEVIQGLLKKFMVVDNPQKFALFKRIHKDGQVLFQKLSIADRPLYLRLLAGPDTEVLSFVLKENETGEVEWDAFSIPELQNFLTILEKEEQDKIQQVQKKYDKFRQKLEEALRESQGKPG

[37] = molecular target: Prohibitin 1 (Homo sapiens) (UniProt P35232)
[38] = molecular target: Transmembrane 9 superfamily member 3 (Homo sapiens) (UniProt Q9HD45)
[39] = molecular target: Structural maintenance of chromosomes protein 4 (Homo sapiens) (UniProt Q9NTJ3)
[40] = molecular target: THO complex subunit 4 (Homo sapiens) (UniProt Q86V81)
[41] = molecular target: Clathrin heavy chain 1 (Homo sapiens) (UniProt Q00610)
[42] = molecular target: Serine/threonine-protein kinase TAO2 (Homo sapiens) (UniProt Q9UL54)
[43] = molecular target: Dihydropyrimidinase-related protein 3 (Homo sapiens) (UniProt Q14195)
[44] = molecular target: Phenylalanine--tRNA ligase alpha subunit (Homo sapiens) (UniProt Q9Y285)
[45] = molecular target: Interleukin enhancer-binding factor 3 (Homo sapiens) (UniProt Q12906)
Filamin-A (Homo sapiens) = Filamin-A (Homo sapiens) (UniProt P21333)
Note: assay method not described here.

Compound: Cc1ccc(C(=O)Nc2cccc(C(F)(F)F)c2)cc1Nc1nc(-c2cccnc2)nc2c1cnn2C
- ED50 [1]: 0.0981 µM
- ED50 [2]: 4.1 µM
- ED50 [3]: 0.0016 µM
- ED50 (Homo sapiens [4]): 3.57 µM
- ED50 [5]: 9.39 µM
- ED50 [6]: 1.63 µM
- ED50 [7]: 0.00529 µM
- ED50 [8]: 4.09 µM
- ED50 [9]: 2.73 µM
- ED50 [10]: 0.0112 µM
- ED50 [11]: 11.2 µM
- ED50 [12]: 0.00445 µM
- ED50 [13]: 0.29 µM
- ED50 [14]: 0.641 µM
- ED50 [15]: 0.115 µM
- ED50 [16]: 3.39 µM
- ED50 [17]: 0.0116 µM
- ED50 [18]: 1.9 µM
- ED50 [19]: 0.765 µM
- ED50 [20]: 19 µM
- ED50 [21]: 10.5 µM
- ED50 (Homo sapiens [22]): 0.878 µM
- ED50 [23]: 0.306 µM
- ED50 [24]: 11.3 µM
- ED50 [25]: 74.6 µM
- ED50 [26]: 0.357 µM
- ED50 [27]: 95700 µM
- ED50 [28]: 0.00241 µM
- ED50 [29]: 0.0843 µM
- ED50 [30]: 7.94 µM
- ED50 [31]: 0.49 µM
- ED50 [32]: 6.46 µM
- ED50 [33]: 2.02 µM
- ED50 [34]: 1.4 µM
- ED50 (Derlin-1 (Homo sapiens)): 13.9 µM
- ED50 [35]: 18.4 µM
- ED50 [36]: 6.41 µM
- ED50 [37]: 6.34 µM
- ED50 [38]: 4.22 µM
- ED50 [39]: 7.32 µM
- ED50 [40]: 70.3 µM
- ED50 [41]: 0.0189 µM
- ED50 [42]: 23.9 µM
- ED50 [43]: 0.379 µM
- ED50 [44]: 0.0419 µM
- ED50 [45]: 9.39 µM
- ED50 (Filamin-A (Homo sapiens)): 7.88 µM

Compound: Cc1ccc(C(=O)Nc2cccc(C(F)(F)F)c2)cc1Nc1nc(-c2cccnc2)nc2nn(C)cc12
- ED50 [1]: 3.15 µM
- ED50 [2]: 2.07 µM
- ED50 [3]: 0.486 µM
- ED50 (Homo sapiens [4]): 0.061 µM
- ED50 [5]: 0.0397 µM
- ED50 [6]: 26.8 µM
- ED50 [7]: 1.92 µM
- ED50 [8]: 0.00989 µM
- ED50 [9]: 0.0305 µM
- ED50 [10]: 0.573 µM
- ED50 [11]: 0.0526 µM
- ED50 [12]: 0.342 µM
- ED50 [13]: 0.0058 µM
- ED50 [14]: 0.00892 µM
- ED50 [15]: 0.0177 µM
- ED50 [16]: 0.073 µM
- ED50 [17]: 1.46 µM
- ED50 [18]: 2.32 µM
- ED50 [19]: 0.959 µM
- ED50 [20]: 0.669 µM
- ED50 [21]: 0.0103 µM
- ED50 (Homo sapiens [22]): 0.217 µM
- ED50 [23]: 1.7 µM
- ED50 [24]: 0.277 µM
- ED50 [25]: 0.514 µM
- ED50 [26]: 0.314 µM
- ED50 [27]: 0.0344 µM
- ED50 [28]: 4.25 µM
- ED50 [29]: 10.2 µM
- ED50 [30]: 0.05 µM
- ED50 [31]: 0.0468 µM
- ED50 [32]: 0.00432 µM
- ED50 [33]: 0.0289 µM
- ED50 [34]: 0.179 µM
- ED50 (Derlin-1 (Homo sapiens)): 28 µM
- ED50 [35]: 63.1 µM
- ED50 [36]: 4.74 µM
- ED50 [37]: 1.94 µM
- ED50 [38]: 0.0218 µM
- ED50 [39]: 7.29 µM
- ED50 [40]: 4.45 µM
- ED50 [41]: 0.0214 µM
- ED50 [42]: 4.27 µM
- ED50 [43]: 0.639 µM
- ED50 [44]: 0.0801 µM
- ED50 [45]: 0.0174 µM
- ED50 (Filamin-A (Homo sapiens)): 21.4 µM
